System: myeloproliferative diseases
Assay: Treatment of patients with myeloproliferative diseases
Type: in vivo, human
Conditions: for clinical outcome of therapy (spleen, blood counts, constitutional symptoms): therapy with the JAK or HDAC inhibitor, patients
Method: 4-(Amino)-2-(2,6-dioxo(3-piperidyl))-isoindoline-1,3-dione (Pomalidomide or Actimid™) is orally administered to patients with myeloproliferative diseases in an amount of 0.1 to 10 mg per day in combination with prednisone, JAK1 inhibitor (e.g., INCB018424), JAK2 inhibitor (e.g., SB11518, XL019, TG101348, and INCB018424), FLT3 inhibitor (e.g., TG101348), BCL2 inhibitor (e.g., GX15-070MS) and/or HDAC inhibitor (e.g., ITF2357).

Compound	efficacy in treating myeloproliferative diseases (oral, 0.1 to 10 mg per day, in combination with prednisone, JAK1, JAK2, FLT3, BCL2 and/or HDAC inhibitor)	clinical outcome of therapy (spleen, blood counts, constitutional symptoms)
Nc1cccc2c1C(=O)N(C1CCC(=O)NC1=O)C2=O (stereo not shown) [4-(Amino)-2-(2,6-dioxo(3-piperidyl))-isoindoline-1,3-dione]	effective in treating myeloproliferative diseases	
N#CC[C@H](C1CCCC1)n1cc(-c2ncnc3[nH]ccc23)cn1 [INCB018424]		dramatic spleen shrinkage and improvement in constitutional symptoms
CCN(CC)Cc1ccc2cc(COC(=O)Nc3ccc(C(=O)NO)cc3)ccc2c1 [ITF2357]		improvement in constitutional symptoms, spleen size and some hematologic responses
O=C(Nc1ccc(-c2ccnc(Nc3ccc(N4CCOCC4)cc3)n2)cc1)C1CCCN1 (stereo not shown) [XL019]		reductions in splenomegaly and leukocytosis, stabilization of hemoglobin counts, improvements in blast counts, and resolution or improvement in generalized constitutional symptoms
